Results as given in patent publication US20260048059A1, “USE OF SUBSTITUTED BENZOXAZOLE AND BENZOFURAN COMPOUNDS FOR THE TREATMENT AND PREVENTION OF DISEASES ASSOCIATED WITH CHRONIC FATIGUE, EXHAUSTION AND/OR EXERTIONAL INTOLERANC” (MITODICURE GMBH, priority 2022, published 2026).

Test system: isolated rat soleus muscle
Test: Ex vivo isolated rat soleus muscle: residual contractile force in high KCl (12.5 mM) buffer
Settings: salbutamol 1 μM alone (control group); 30 min in KCl 12.5 mM buffer, relative to last force in initial buffer
Excerpt: The isolated rat muscle either soleus muscle or extensor digitorum longus muscle is a well-characterized and well-validated model for the study of the function of the Na^+/K^+ ATPase. The isolated rat soleus muscle is particularly appropriate for experiments ex vivo as it is very thin so that there is no need for blood supply. […] In the experimental setting used, the high KCl concentration buffer causes partial depolarization that leads to sodium influx to disturb and to decrease excitability to subsequently reduce muscle force. Stimulation of Na^+/K^+ ATPase lowers intracellular sodium levels towards physiological levels to restore excitability and muscular force during electrical stimulation.
As the phosphodiesterase isoenzyme subtype 7 (PDE7) is the predominant PDE isoenzyme in skeletal muscle to raise cAMP this ex vivo model is suited for the testing the effect of PDE7 inhibitors and in particular their effect on force generation disturbed by mechanisms that worsen excitability or the energetic situation. […] High level activity of Na^+/K^+ ATPase stimulated by cAMP can counteract the decrease in excitability and the loss of force. […]
Force measurement: The experimental set-up used for force measurements allowed for the simultaneous recordings from 6 muscles in separate incubation chambers in parallel. Force was recorded and stored with a Notocord HEM data acquisition system. […]

Q: With `CC(C)(C)NCC(O)c1ccc(O)c(CO)c1` (stereo not shown) [Salbutamol] as the compound, how does the “Mean residual contractile force in % (SEM in %)” value read?
A: 26.6 (3.7); n = 31%
